Data as given in PubChem BioAssay AID248 (DTP/NCI, 2004).
Where “and” joins values, the source holds several entries; their conditions need not be identical. Identical values can stand only once. Inconclusive results and toxic doses are left out. Rule as the data show it: active = T/C of 150% or more; inactive = T/C below 125%.

Tested on: L1210 leukemia ip in BDF1 mice, survival T/C
Assay: NCI In Vivo Anticancer Drug Screen. Data for tumor model L1210 Leukemia (intraperitoneal) in B6D2F1 (BDF1) mice
Conditions: endpoint: mean survival time, higher = longer survival
In short: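 Value reflects the ratio of survival in compound-treated mice to survival in vehicle-treated controls, with both groups carrying the same transplanted tumor.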

[1] = dose: 50.0 mg/kg/injection, schedule: Q01DX001 (ip), vehicle: saline
[2] = dose: 100.0 mg/kg/injection, schedule: Q01DX001 (ip), vehicle: saline
[3] = dose: 200.0 mg/kg/injection, schedule: Q01DX001 (ip), vehicle: saline
[4] = dose: 400.0 mg/kg/injection, schedule: Q01DX001 (ip), vehicle: saline
[5] = dose: 50.0 mg/kg/injection, schedule: Q04DX003 (ip), vehicle: saline
[6] = dose: 100.0 mg/kg/injection, schedule: Q04DX003 (ip), vehicle: saline
[7] = dose: 200.0 mg/kg/injection, schedule: Q04DX003 (ip), vehicle: saline
[8] = dose: 100.0 mg/kg/injection, schedule: Q01DX001 (ip), vehicle: Klucel (hydroxypropylcellulose) (HPC)
[9] = dose: 100.0 mg/kg/injection, schedule: Q04DX003 (ip), vehicle: Klucel (hydroxypropylcellulose) (HPC)
[10] = dose: 200.0 mg/kg/injection, schedule: Q01DX001 (ip), vehicle: Klucel (hydroxypropylcellulose) (HPC)
[11] = dose: 200.0 mg/kg/injection, schedule: Q04DX003 (ip), vehicle: Klucel (hydroxypropylcellulose) (HPC)
[12] = dose: 25.0 mg/kg/injection, schedule: Q04DX003 (ip), vehicle: saline
[13] = dose: 100.0 mg/kg/injection, schedule: Q01DX009 (ip), vehicle: Klucel (hydroxypropylcellulose) (HPC)
[14] = dose: 200.0 mg/kg/injection, schedule: Q01DX009 (ip), vehicle: Klucel (hydroxypropylcellulose) (HPC)
[15] = dose: 100.0 mg/kg/injection, schedule: Q01DX009 (ip), vehicle: saline with Tween-80
[16] = dose: 200.0 mg/kg/injection, schedule: Q01DX009 (ip), vehicle: saline with Tween-80
[17] = dose: 400.0 mg/kg/injection, schedule: Q01DX009 (ip), vehicle: Klucel (hydroxypropylcellulose) (HPC)
[18] = dose: 400.0 mg/kg/injection, schedule: Q04DX003 (ip), vehicle: Klucel (hydroxypropylcellulose) (HPC)
[19] = dose: 400.0 mg/kg/injection, schedule: Q01DX001 (ip), vehicle: Klucel (hydroxypropylcellulose) (HPC)

Measured: T/C

Cc1cc[n+]2n1CC(O)C2 (centres undefined)
inactive: [1] 102 % of control | [2] 100 % of control | [3] 96 % of control | [4] 102 % of control

CC1(C)OC2C(CNCCO)OC(OCc3ccccc3)C2O1 (centres undefined)
inactive: [5] 102 % of control | [6] 94 % of control | [7] 88 % of control

COc1c(C)c2c(c(Br)c1N)COCO2
inactive: dose: 50.0 mg/kg/injection, schedule: Q01DX001 (ip), vehicle: Klucel (hydroxypropylcellulose) (HPC) 94 % of control | [8] 92 % of control | [9] 95 % of control | [10] 94 % of control | [11] 97 % of control

COc1ccc(C2(C)OC(=O)c3ccccc32)c2ccccc12 (centres undefined)
inactive: dose: 100.0 mg/kg/injection, schedule: Q01DX001 (ip), vehicle: saline with Tween-80 94 % of control | dose: 200.0 mg/kg/injection, schedule: Q01DX001 (ip), vehicle: saline with Tween-80 100 % of control | dose: 400.0 mg/kg/injection, schedule: Q01DX001 (ip), vehicle: saline with Tween-80 87 % of control

CCC[CH2][Sn]([Cl])([Cl])[CH2]CCC
inactive: dose: 2.5 mg/kg/injection, schedule: Q01DX009 (ip), vehicle: saline with Tween-80 100 % of control | dose: 5.0 mg/kg/injection, schedule: Q01DX009 (ip), vehicle: saline with Tween-80 95 % of control | dose: 5.0 mg/kg/injection, schedule: Q04DX003 (ip), vehicle: saline with Tween-80 104 % of control | dose: 10.0 mg/kg/injection, schedule: Q01DX009 (ip), vehicle: saline with Tween-80 95 % of control | dose: 10.0 mg/kg/injection, schedule: Q04DX003 (ip), vehicle: saline with Tween-80 101 % of control | dose: 20.0 mg/kg/injection, schedule: Q04DX003 (ip), vehicle: saline with Tween-80 119 % of control

CC1=CC2CCC1C2 (centres undefined)
inactive: dose: 75.0 mg/kg/injection, schedule: Q01DX001 (ip), vehicle: acetone 101 % of control | dose: 150.0 mg/kg/injection, schedule: Q01DX001 (ip), vehicle: acetone 95 % of control

CC/C(=N/O)c1ccccc1
inactive: dose: 100.0 mg/kg/injection, schedule: Q04DX003 (ip), vehicle: saline sonified 110 % of control | dose: 200.0 mg/kg/injection, schedule: Q04DX003 (ip), vehicle: saline sonified 95 % of control | dose: 400.0 mg/kg/injection, schedule: Q04DX003 (ip), vehicle: saline sonified 93 % of control

O=C1OC(=O)C2C1C13CCCC1=C1CCC34C(=O)OC(=O)C43CC123 (centres undefined)
inactive: dose: 6.25 mg/kg/injection, schedule: Q01DX009 (ip), vehicle: saline 111 % of control | dose: 12.5 mg/kg/injection, schedule: Q01DX001 (ip), vehicle: saline 115 % of control | dose: 12.5 mg/kg/injection, schedule: Q01DX009 (ip), vehicle: saline 109 % of control | dose: 12.5 mg/kg/injection, schedule: Q04DX003 (ip), vehicle: saline 106 % of control | dose: 25.0 mg/kg/injection, schedule: Q01DX001 (ip), vehicle: saline 107 % of control | [12] 104 % of control | [1] 109 % of control

FC(F)(F)c1cccc(N2CCNCC2)c1
inactive: dose: 75.0 mg/kg/injection, schedule: Q01DX001 (ip), vehicle: acid diluted with saline 90 % of control

Cc1c(Cl)cc(C(C)C)c(O)c1CN1CCCCC1
inactive: dose: 222.0 mg/kg/injection, schedule: Q01DX Z (ip), vehicle: saline 92 % of control | dose: 333.0 mg/kg/injection, schedule: Q01DX Z (ip), vehicle: saline 91 % of control | dose: 500.0 mg/kg/injection, schedule: Q01DX Z (ip), vehicle: saline 91 % of control

Cc1cc2c(cc1C)C(=O)C(=O)N2
inactive: [1] 98 % of control | [2] 107 % of control | [3] 104 % of control | [4] 98 % of control

CN1CN(c2ccccc2)CSC1=S
inactive: dose: 50.0 mg/kg/injection, schedule: Q01DX009 (ip), vehicle: Klucel (hydroxypropylcellulose) (HPC) 102 % of control | [13] 107 % of control | [9] 94 % of control | [14] 95 % of control | [11] 89 % of control

CC(=O)OC1CCC(C(C)(C)C)CC1 (centres undefined)
inactive: [15] 98 % of control | [16] 95 % of control

CCN(CC)c1ccc(/C=C/c2ccncc2)cc1
inactive: [13] 93 % of control | [9] 104 % of control | [14] 92 % of control | [11] 96 % of control | [17] 90 % of control | [18] 93 % of control

O=C1NCN(CCO)CN1
inactive: [6] 95 % of control | [7] 91 % of control | dose: 400.0 mg/kg/injection, schedule: Q04DX003 (ip), vehicle: saline 98 % of control

CCCCCCCCCCCCC(=O)N(CCCC)CCCC
inactive: dose: 100.0 mg/kg/injection, schedule: Q04DX002 (ip), vehicle: Klucel (hydroxypropylcellulose) (HPC) 92 % of control | dose: 200.0 mg/kg/injection, schedule: Q04DX002 (ip), vehicle: Klucel (hydroxypropylcellulose) (HPC) 96 % of control | dose: 400.0 mg/kg/injection, schedule: Q04DX002 (ip), vehicle: Klucel (hydroxypropylcellulose) (HPC) 103 % of control

CCCCC(CC)C1OC(=O)C(C)O1 (centres undefined)
inactive: [13] 100 % of control | [9] 102 % of control | [14] 104 % of control | [11] 100 % of control | [17] 105 % of control | [18] 102 % of control

CC1CCC(=O)OCCCC(=O)C1 (centres undefined)
inactive: [2] 93 % of control | [4] 95 % of control

CC1Cc2ccccc2C2=C3CC=CCC3C3C(=O)OC(=O)C3C21 (centres undefined)
inactive: dose: 75.0 mg/kg/injection, schedule: Q01DX001 (ip), vehicle: carboxymethylcellulose (CMC) 89 % of control | dose: 150.0 mg/kg/injection, schedule: Q01DX001 (ip), vehicle: carboxymethylcellulose (CMC) 94 % of control | dose: 300.0 mg/kg/injection, schedule: Q01DX001 (ip), vehicle: carboxymethylcellulose (CMC) 90 % of control

O=c1c2ccccc2c2ccccc2n1-c1ccccc1
inactive: [8] 97 % of control | [10] 94 % of control | [19] 91 % of control

S=c1[nH]c(-c2ccccc2)cs1
inactive: dose: 50.0 mg/kg/injection, schedule: Q01DX001 (ip), vehicle: other 90 % of control | [8] 96 % of control | dose: 100.0 mg/kg/injection, schedule: Q01DX001 (ip), vehicle: other 96 % of control | [13] 96 % of control | [10] 95 % of control | dose: 200.0 mg/kg/injection, schedule: Q01DX001 (ip), vehicle: other 100 % of control | [14] 96 % of control | [19] 95 % of control | dose: 400.0 mg/kg/injection, schedule: Q01DX001 (ip), vehicle: other 96 % of control | [17] 97 % of control

CCCCCCC(C)O[Si](C)c1ccc(-c2ccccc2)cc1 (centres undefined)
inactive: [15] 100 % of control | dose: 100.0 mg/kg/injection, schedule: Q04DX003 (ip), vehicle: saline with Tween-80 93 % of control | [16] 105 % of control | dose: 200.0 mg/kg/injection, schedule: Q04DX003 (ip), vehicle: saline with Tween-80 94 % of control | dose: 400.0 mg/kg/injection, schedule: Q01DX009 (ip), vehicle: saline with Tween-80 102 % of control | dose: 400.0 mg/kg/injection, schedule: Q04DX003 (ip), vehicle: saline with Tween-80 100 % of control

O=C(CCN1CC1)NCCCCCCNC(=O)CCN1CC1
inactive: [9] 92 % of control | [11] 90 % of control | [18] 86 % of control

CCCCN(CCCC)CCCC#N
inactive: dose: 25.0 mg/kg/injection, schedule: Q01DX009 (ip), vehicle: saline 105 % of control | [12] 106 % of control | dose: 50.0 mg/kg/injection, schedule: Q01DX009 (ip), vehicle: saline 103 % of control | [5] 100 % of control | dose: 100.0 mg/kg/injection, schedule: Q01DX009 (ip), vehicle: saline 100 % of control | [6] 103 % of control and 105 % of control
